From BindingDB's records for doi:10.7270/Q2319T8T (The Scripps Research Institute Molecular Screening Center, 2007) come the findings set out here.

Structures are written as SMILES. Counter-ions that a name gives are not always drawn.

Broadly, the IC50 is the point on the concentration scale where inhibition reaches its midpoint. Low values mean higher potency, high ones lower potency.

The first assay deals with Steroidogenic factor 1 (Homo sapiens, UniProt Q13285). Description: SF-1 inhibitor potency, dose response, cell-based, CHO-K1, Gal4-SF-1 LBD, luciferase luminescence (AID 600).
Chain of Steroidogenic factor 1 (Q13285 whole entry, the tested form may be a part): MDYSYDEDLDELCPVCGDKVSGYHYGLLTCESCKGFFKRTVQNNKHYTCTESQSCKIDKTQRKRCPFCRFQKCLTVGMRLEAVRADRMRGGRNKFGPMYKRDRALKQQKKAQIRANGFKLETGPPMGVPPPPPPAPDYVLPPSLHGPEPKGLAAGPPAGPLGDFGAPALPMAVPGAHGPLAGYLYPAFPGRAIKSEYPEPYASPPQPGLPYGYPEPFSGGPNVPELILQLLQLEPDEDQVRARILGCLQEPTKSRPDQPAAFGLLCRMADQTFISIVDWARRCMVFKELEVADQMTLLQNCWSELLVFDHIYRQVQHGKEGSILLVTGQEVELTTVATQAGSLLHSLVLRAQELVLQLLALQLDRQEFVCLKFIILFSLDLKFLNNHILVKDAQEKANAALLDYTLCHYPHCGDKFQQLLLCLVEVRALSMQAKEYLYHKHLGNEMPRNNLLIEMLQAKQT
Settings: not given
Regarding `CCOc1ccc(-c2nc(CSCC(=O)NCCN3CCOCC3)c(C)o2)cc1` [2-({[2-(4-ethoxyphenyl)-5-methyl-1,3-oxazol-4-yl]methyl}thio)-N-(2-morpholin-4-ylethyl)acetamide], inhibition was half-maximal at 4.36 µM (IC50).
On the same count and under the same terms, the same measure for `CCc1ccc(-c2nc(CSCC(=O)NCCCN3CCCC3=O)c(C)o2)cc1` [2-({[2-(4-ethylphenyl)-5-methyl-1,3-oxazol-4-yl]methyl}thio)-N-[3-(2-oxopyrrolidin-1-yl)propyl]acetamide]: 4.32 µM; for `COc1cc(CC(NC(C)=O)C(=O)NC2CCN(c3nc(C)cc(C)c3C#N)CC2)cc(OC)c1` (stereo not drawn) [2-Acetylamino-N-(3'-cyano-4',6'-dimethyl-3,4,5,6-tetrahydro-2H-[1,2']bipyridinyl-4-yl)-3-(3,5-dimethoxy-phenyl)-propionamide]: > 33 µM.
The molecule `Nc1nc(Cl)nc2c1ncn2[C@H]1C[C@H](O)[C@@H](CO)O1` [2-CHLORO-2'-DEOXYADENOSINE] registered an IC50 of 0.454 µM.
In turn, `Cc1cc(C)n(-c2nc(NC(C)(C)C)nc(NC(C)(C)C)n2)n1` [2-N,4-N-ditert-butyl-6-(3,5-dimethylpyrazol-1-yl)-1,3,5-triazine-2,4-diamine] gave an IC50 of 8.2 µM.
Still for that read-out and setting: the same measure for `CCCCOc1ccccc1NC(=O)Cn1c(-c2nonc2N)nc2ccccc21` [2-[2-(4-amino-1,2,5-oxadiazol-3-yl)-1-benzimidazolyl]-N-(2-butoxyphenyl)acetamide]: > 3.67 µM; for `CN1CCN(C(=O)COc2ccc(-c3nc4ccccc4s3)cc2)CC1` [2-[4-(1,3-benzothiazol-2-yl)phenoxy]-1-(4-methyl-1-piperazinyl)ethanone]: 7.32 µM.
Molecule `c1ccc(-c2noc(-c3ccc4c(c3)OCO4)n2)nc1` [2-[5-(1,3-benzodioxol-5-yl)-1,2,4-oxadiazol-3-yl]pyridine] showed an IC50 of 1.36 µM.
The molecule `c1ccc(-c2noc(-c3ccc4ccccc4c3)n2)nc1` [2-[5-(2-naphthyl)-1,2,4-oxadiazol-3-yl]pyridine] yielded an IC50 of 0.7 µM.
In the case of `Clc1cccc(-c2nc(-c3ccccn3)no2)c1` [2-[5-(3-Chloro-phenyl)-[1,2,4]oxadiazol-3-yl]-pyridine], the IC50 was > 3.67 µM.
`O=S1(=O)C=C(Sc2nc3ccccc3s2)c2ccccc21` [2-[(1,1-dioxido-1-benzothien-3-yl)thio]-1,3-benzothiazole] came in with an IC50 of 0.713 µM.
On to `O=C(CSc1nnnn1C1CC2CCC1C2)Nc1ccnc2ccccc12` (stereo not drawn) [2-[(1-bicyclo[2.2.1]hept-2-yl-1H-tetrazol-5-yl)thio]-N-4-quinolinylacetamide], for which the IC50 was 0.977 µM.
As to `COC(=O)c1sc(NC(=O)c2ccc(OC)cc2OC)nc1C` [2-[(2,4-dimethoxybenzoyl)amino]-4-methyl-thiazole-5-carboxylic acid methyl ester], the IC50 was found to be 2.86 µM.
For `Cc1cc(C=c2sc3nc4ccccc4n3c2=O)c(C)n1-c1ccccn1` [2-[(2,5-dimethyl-1-pyridin-2-yl-pyrrol-3-yl)methylidene]-[1,3]thiazolo[3,2-a]benzimidazol-1-one], the IC50 was > 0.00503 µM.
The molecule `Cc1cccc(N2CCN(C(=O)CSCc3c(C)noc3C)CC2)c1C` [2-[(3,5-dimethyl-1,2-oxazol-4-yl)methylsulfanyl]-1-[4-(2,3-dimethylphenyl)piperazin-1-yl]ethanone] showed a concentration for half-maximal inhibition (IC50) of 0.876 µM.
For the molecule `Cc1cccc2cc(C#N)c(SCC(=O)N3CC(=O)Nc4ccccc43)nc12` [2-[[2-keto-2-(3-keto-2,4-dihydroquinoxalin-1-yl)ethyl]thio]-8-methyl-quinoline-3-carbonitrile], the IC50 is > 3.67 µM.
On to `CCOC(=O)CSc1nc2cc(C(=O)NCc3ccco3)ccc2c(=O)n1-c1ccc(F)cc1` [2-[[3-(4-fluorophenyl)-7-(2-furfurylcarbamoyl)-4-keto-quinazolin-2-yl]thio]acetic acid ethyl ester], for which the IC50 is > 11 µM.
In the case of `COc1cccc(NC(=O)CSc2nnc(-c3cc(C)n(-c4ccccc4)c3C)o2)c1` [2-[[5-(2,5-dimethyl-1-phenyl-3-pyrrolyl)-1,3,4-oxadiazol-2-yl]thio]-N-(3-methoxyphenyl)acetamide], the IC50 is 3.4 µM.
With `CCOC(=O)c1c(N)sc(C(=O)Nc2ccc3c(c2)OCO3)c1C` [2-amino-5-(1,3-benzodioxol-5-ylcarbamoyl)-4-methyl-thiophene-3-carboxylic acid ethyl ester], the concentration for half-maximal inhibition (IC50) is > 3.67 µM.
Take `CCN(CC)c1ccc2c(c1)OC(=N)C(C#N)C2c1cccnc1` (stereo not drawn) [2-amino-7-(diethylamino)-4-(3-pyridinyl)-4H-1-benzopyran-3-carbonitrile]: the IC50 was > 3.67 µM.
`CN(C)c1ccc2c(c1)OC(=N)C(C#N)C2c1cccc(F)c1` (stereo not drawn) [2-amino-7-(dimethylamino)-4-(3-fluorophenyl)-4H-1-benzopyran-3-carbonitrile] displayed an IC50 of 10.9 µM.
For `COc1cc(C2c3ccc(N(C)C)cc3OC(=N)C2C#N)cc2c1OCO2` (stereo not drawn) [2-amino-7-(dimethylamino)-4-(7-methoxy-1,3-benzodioxol-5-yl)-4H-1-benzopyran-3-carbonitrile], the IC50 was > 3.67 µM.
On to `CCc1nn2cc(-c3ccccc3)nc2s1` [2-ethyl-6-phenyl-imidazo[2,1-b][1,3,4]thiadiazole], for which half-maximal inhibition (IC50) was put at 4.41 µM.
Molecule `CCCc1ccc(-c2ccc(F)c(N)c2)nc1` [2-fluoranyl-5-(5-propylpyridin-2-yl)aniline] displayed an IC50 of 7.35 µM.
On to `c1ccc(-c2nc(NCc3ccco3)c3ccccc3n2)nc1` [2-furfuryl-[2-(2-pyridyl)quinazolin-4-yl]amine], for which the IC50 was 6.79 µM.
In turn, `O=C(c1ccc2c3c(cccc13)C(=O)N(O)C2=O)N1CCCCC1` [2-hydroxy-6-(piperidine-1-carbonyl)benzo[de]isoquinoline-1,3-dione] had an IC50 of 1.92 µM.
For `COc1cc(C2C3=C(N=C(C)C2C#N)c2ccccc2C3=O)cc(OC)c1OC` (stereo not drawn) [2-methyl-5-oxidanylidene-4-(3,4,5-trimethoxyphenyl)-1,4-dihydroindeno[1,2-b]pyridine-3-carbonitrile], the IC50 is > 1.22 µM.
Turning to `c1ccc(-c2cn3c4c(sc3n2)CCCC4)cc1` [2-phenyl-5,6,7,8-tetrahydroimidazo[2,1-b][1,3]benzothiazole], half-maximal inhibition (IC50) required 4.54 µM.
The same measure, in the same setting: the same measure for `c1csc(CNc2ncnc3sccc23)c1` [2-thenyl(thieno[2,3-d]pyrimidin-4-yl)amine]: 3.49 µM; for `c1ccc(-c2ccc(-c3ccccn3)nn2)nc1` [3,6-bis(2-pyridinyl)pyridazine]: > 11 µM; for `Cc1ccc(-c2nc3nc4ccccc4nc3n2Cc2ccco2)cc1` [3-(2-furanylmethyl)-2-(4-methylphenyl)imidazo[4,5-b]quinoxaline]: 6.89 µM.
With `CCOc1ccc(-c2noc(CCC(=O)O)n2)cc1` [3-(3-p-phenetyl-1,2,4-oxadiazol-5-yl)propionic acid], 3.89 µM corresponded to half-maximal inhibition (IC50).
Still for that read-out and setting: the same measure for `CN(C)CC(C(=O)c1ccccc1)c1ccccc1` (stereo not drawn) [3-(dimethylamino)-1,2-diphenyl-1-propanone;hydrochloride]: > 3.67 µM; for `COc1cc(OC)cc(-c2cc3nc(C)c(CCC(=O)O)c(C)n3n2)c1` [3-[2-(3,5-dimethoxyphenyl)-5,7-dimethyl-6-pyrazolo[1,5-a]pyrimidinyl]propanoic acid]: 0.625 µM; for `Cc1ccccc1NC(=O)N1CCCC(c2nc(-c3ccc(C(C)C)cc3)no2)C1` (stereo not drawn) [3-[3-(4-Isopropyl-phenyl)-[1,2,4]oxadiazol-5-yl]-piperidine-1-carboxylic acid o-tolylamide]: 7.13 µM.
The molecule `CN(C)C(=O)CCc1nc(-c2ccc(C(C)(C)C)cc2)no1` [3-[3-(4-tert-butylphenyl)-1,2,4-oxadiazol-5-yl]-N,N-dimethyl-propanamide] returned an IC50 of 0.993 µM.
Still for that read-out and setting: the result for `CCNC(=O)CCc1nc(-c2ccc(C(C)(C)C)cc2)no1` [3-[3-(4-tert-butylphenyl)-1,2,4-oxadiazol-5-yl]-N-ethyl-propanamide] reads 0.0401 µM; that for `CNC(=O)CCc1nc(-c2ccc(C(C)(C)C)cc2)no1` [3-[3-(4-tert-butylphenyl)-1,2,4-oxadiazol-5-yl]-N-methyl-propanamide], 0.058 µM.
The molecule `CC(C)(C)c1ccc(-c2noc(CCC(N)=O)n2)cc1` [3-[3-(4-tert-butylphenyl)-1,2,4-oxadiazol-5-yl]propanamide] returned an IC50 of 0.069 µM.
The same measure, in the same setting: the same measure for `O=C(O)c1cccc(COc2ccccc2Cl)c1` [3-[(2-chloranylphenoxy)methyl]benzoic acid]: 0.69 µM; for `O=C(O)c1cccc(COc2ccc(CO)cc2Cl)c1` [3-[(2-chloro-4-methylol-phenoxy)methyl]benzoic acid]: 0.547 µM.

The assay is the same for the next values; noted with them: inactive by the depositor's call.
With `Cc1cc(N2CCN(c3nc4ccccc4s3)CC2)n2ncnc2n1` [2-[4-(5-methyl-[1,2,4]triazolo[1,5-a]pyrimidin-7-yl)-1-piperazinyl]-1,3-benzothiazole], half-maximal inhibition (IC50) was put at 22.9 µM.
Molecule `CCc1ccc(-c2nc(CSCC(=O)N3CCN(c4ncccn4)CC3)c(C)o2)cc1` [2-[[2-(4-ethylphenyl)-5-methyl-1,3-oxazol-4-yl]methylsulfanyl]-1-(4-pyrimidin-2-ylpiperazin-1-yl)ethanone] showed a 50% inhibitory concentration (IC50) of 37.1 µM.
Still for that read-out and setting: the same measure for `N#CC(C#N)=c1ccc2c(c1)NC1(CCCCC1)N=2` [2-spiro[3H-benzimidazole-2,1'-cyclohexane]-5-ylidenepropanedinitrile]: 10.1 µM.
Turning to `COc1cc(C(=O)Oc2c(CN3CCOCC3)cc(Cl)c3cccnc23)cc(OC)c1OC` [3,4,5-trimethoxybenzoic acid [5-chloro-7-(4-morpholinylmethyl)-8-quinolinyl] ester], the IC50 is 12.3 µM.
The molecule `Cc1nn(-c2ccccc2)c(C)c1C(=O)OCC(=O)c1c(N)n(CC(C)C)c(=O)n(C)c1=O` [3,5-dimethyl-1-phenyl-4-pyrazolecarboxylic acid [2-[4-amino-1-methyl-3-(2-methylpropyl)-2,6-dioxo-5-pyrimidinyl]-2-oxoethyl] ester] came in with an IC50 of 30.3 µM.
For the molecule `Cc1ccc(-c2cc3c(nn2)-c2ccccc2C3=O)cc1` [3-(4-methylphenyl)-5H-indeno[1,2-c]pyridazin-5-one], the IC50 amounted to 13 µM.
For `COc1ccc(NC(=O)N2CCCC(c3nc(-c4ccc(C(C)C)cc4)no3)C2)cc1` (stereo not drawn) [3-[3-(4-Isopropyl-phenyl)-[1,2,4]oxadiazol-5-yl]-piperidine-1-carboxylic acid (4-methoxy-phenyl)-amide], the IC50 was 14 µM.
